The values that follow come from patent US11850256B2, “Small molecule-mediated restoration of airway surface physiology in human cystic fibrosis lung epithelia” (The Board of Trustees of the University of Illinois, priority 2016, dated 2023).

“Also recorded” adds a separate entry of the source.

For data set [1], the system named is Human red blood cells (RBCs). The data set can be described thus: Hemolysis of human red blood cells. The format is cell-based. The protocol:
Against Toxicity but Preserves Permeabilization of CF Human Lung Epithelia Human red blood cells (RBCs) were separated from whole blood by centrifugation and then exposed to AmB or pre-formed AmB:Chol complexes (1:5) (Example 8) over a range of concentrations up to 20 μM. Hemolysis was then measured.

Data set [2] concerns CuFi-1 epithelial monolayers. The data set can be described thus: Airway surface liquid (ASL) pH assay, SNARF-dextran ratiometric dye, CuFi-1 monolayers. The format is cell-based, human. The protocol:
Airway surface liquid (ASL) pH assay. ASL pH was studied using an established fluorescent dye assay using the Dextran, SNARF®-1, 70,000 MW ratiometric dye (Thermo Fisher D3304). Mature, differentiated CuFi-1 (ATCC CRL-4013) epithelial monolayers were grown on Corning Costar 0.4 μm Transwell Clear Polyester Membrane cell culture inserts (Corning 3470). CuFi epithelia were treated with perfluorinated hydrocarbon (PFC) vehicle, AmB, AmB:Chol or Chol and incubated for the time course of the experiment at 37° C. On the day of imaging, 100 μL of a suspension of SNARF-dextran in PFC was added to the apical side of the monolayers. Monolayers were imaged 2 hours after dye addition. The monolayers were placed on 100 μL of Ultroser G media on a 10 mm glass bottom Fluorodish for imaging (World Precision Instruments). Five images per membrane were taken on a Zeiss LSM 880 confocal microscope at 40× water immersion. These images were analyzed using ImageJ to determine the green to red ratio of each image. Solutions of known pH were used to calibrate pH detection using this system. […]

The nature of data set [3]: Proton release (1:100 AmB:lipid vs DMSO). As to conditions: FIG. 18. As for the experimental part:
FIG. 18 depicts the effect of 1:100 AmB:lipid (circles) compared to DMSO (triangles) on proton release.
To directly probe whether AmB-mediated bicarbonate transport causes the ASL pH increase, pH-stat experiments were performed in large NuLi and CuFi-1 epithelial monolayers either in the presence of bicarbonate or in bicarbonate-free solution. Cho, D Y, et al., (2009) Am J Rhinol Allergy 23, e10-13; Cho, D Y, et al., (2011) Int Forum Allergy Rhinol 1, 123-127. […] To address the potential role of proton absorption in the alkalization of the ASL, these experiments were repeated in bicarbonate-free buffer.

Data set [4] concerns CF primary human lung epithelia. The data set can be described thus: ASL bacterial killing in CF primary human lung epithelia (S. aureus). The format is cell-based. The conditions noted are these: 2 μM. As for the experimental part:
CF primary human lung epithelia were prepared and maintained in vitro as previously described. Pezzulo A A et al. (2012) Nature 487: 109-113. These cells were treated with AmB or C35deOAmB at a final concentration of 2 μM for 1 minute, then washed and maintained in culture for 48 h, and then bacterial killing was measured.
Increased ASL viscosity, a downstream effect of ASL pH acidification, contributes to the inability to clear mucus and bacteria from the lung. […] ASL pH is also closely correlated to the ability of antimicrobial proteins in the ASL to enact bacterial killing. To connect the observed AmB-mediated increase in ASL pH with a meaningful increase in ASL bacterial killing, AmB treated epithelia were tested against a human strain of S. aureus. Pezzulo A A et al. (2012) Nature 487: 109-113.

In data set [5] the test system is CuFi-4 (ΔF508/G551D) monolayers. The data set can be described thus: 14C bicarbonate transport in CuFi-4 monolayers. In kind it is cell-based, human. The protocol: ^14C bicarbonate was administered to the basolateral side of monolayers to trace ion movement through the cells over time. Epithelial monolayers grown from the patient-derived lung epithelial cell line CuFi-1 (ΔF508/ΔF508) were also studied. The genotype ΔF508/ΔF508 represents about 46.5% of all CF patients and is considered a relatively severe deficiency. Permeabilization of the apical membrane to bicarbonate anions with AmB could correct the flux abnormality resulting from the loss of CFTR. Upon treatment with 2 μM AmB for 48 hours, a decrease in intracellular ^14C bicarbonate and an increase in ASL ^14C bicarbonate compared to CuFi-1 alone was observed (FIGS. 15A and 15B).
Ivacaftor is a clinically approved and effective drug to treat cystic fibrosis, and it was used as a control in some of the experiments. Following literature precedent for in vitro ivacaftor administration, CuFi-4 (ΔF508/G551D) epithelia were treated with forskolin (Fsk) to promote phosphorylation of CFTR and ivacaftor (Iva) to potentiate conductance through the channel. E. H. Chang et al., Int Forum Allergy Rhinol 5, 178-181 (2015); F. Van Goor et al. (2009) Proc. Natl. Acad. Sci. 106, 18825-18830. […] This provides evidence that while both ivacaftor and AmB increase bicarbonate transport, AmB is operating through a genotype-agnostic mechanism.

Data set [6] relates to non-CF primary human lung epithelia. The data set can be described thus: ASL pH in non-CF (control) primary human lung epithelia. The format is cell-based. As to conditions: apical. The protocol: Airway surface liquid (ASL) pH assay. ASL pH was studied using an established fluorescent dye assay using the Dextran, SNARF®-1, 70,000 MW ratiometric dye (Thermo Fisher D3304). Mature, differentiated CuFi-1 (ATCC CRL-4013) epithelial monolayers were grown on Corning Costar 0.4 μm Transwell Clear Polyester Membrane cell culture inserts (Corning 3470). CuFi epithelia were treated with perfluorinated hydrocarbon (PFC) vehicle, AmB, AmB:Chol or Chol and incubated for the time course of the experiment at 37° C. On the day of imaging, 100 μL of a suspension of SNARF-dextran in PFC was added to the apical side of the monolayers. Monolayers were imaged 2 hours after dye addition. The monolayers were placed on 100 μL of Ultroser G media on a 10 mm glass bottom Fluorodish for imaging (World Precision Instruments). Five images per membrane were taken on a Zeiss LSM 880 confocal microscope at 40× water immersion. These images were analyzed using ImageJ to determine the green to red ratio of each image. Solutions of known pH were used to calibrate pH detection using this system.
Non-CF (control) and CF primary human lung epithelia were prepared and maintained in vitro as previously described. Pezzulo A A et al. (2012) Nature 487: 109-113. […]

In the case of `C[C@@H]1[C@H](O)[C@@H](C)/C=C/C=C/C=C/C=C/C=C/C=C/C=C/[C@H](O[C@@H]2O[C@H](C)[C@@H](O)[C@H](N)[C@@H]2O)C[C@@H]2O[C@](O)(C[C@@H](O)C[C@@H](O)[C@H](O)CC[C@@H](O)C[C@@H](O)CC(=O)O[C@H]1C)C[C@H](O)[C@H]2C(=O)O` [AmB, amphotericin B], in data set [1], the “concentration giving 50 percent hemolysis” value is reported as “about 7 μM” and the “concentration giving 100 percent hemolysis” value was “about 10 μM”. Besides, the “effect on ASL pH, apical addition” value in data set [2] (CuFi-1) is given as “increase ASL pH; also recorded: efficacious”. In data set [2] (CuFi-1, basolateral addition), the “effect on ASL pH, basolateral addition” value is “unable to increase ASL pH; also recorded: not basolateral”. In addition, the “drop of ASL pH below the starting pH” value in data set [2] (Example 7, FIG. 8, by 25 μM and beyond) is “about 0.05 pH units”. Moreover, the “dose up to which ASL pH increased” value in data set [2] (Example 7, FIG. 8, suspension in PFC) was 2 μM. Besides, the “ASL pH at high dose” value in data set [2] (Example 14, FIG. 21, by 25 μM) was “back down to the starting pH”. Besides, in data set [2] (Example 14, FIG. 21, suspension in PFC), the “dose at which ASL pH increase peaks” value stood at 5 μM. In data set [3], the proton transport result was “able to transport protons”. For the same molecule, the “percent killing (ASL bacterial killing)” value in data set [4] (killing measured after 48 h, control about 25 percent) was “about 40%”. Moreover, in data set [4] (vs control), the “effect on ASL bacterial killing” value was “increased ASL bacterial killing”. Moreover, the “ASL 14C bicarbonate” value in data set [5] was “significantly increase; also recorded: increase bicarbonate in ASL”. Also, in data set [6], the “effect on ASL pH of non-CF epithelia” value is on record as “absence of effect; also recorded: no effect”.
